Data from ChEMBL document CHEMBL1141890, “DNA topoisomerase I inhibitors from Rinorea anguifera” (Bioorg Med Chem Lett, 2005).

Legend:
[1] = molecular target: T1, DNA topoisomerase 1 (Homo sapiens) (UniProt P11387); assay: Effect on stabilization of human topoisomerase I-DNA covalent complex at 100 uM
T1 sequence (whole entry): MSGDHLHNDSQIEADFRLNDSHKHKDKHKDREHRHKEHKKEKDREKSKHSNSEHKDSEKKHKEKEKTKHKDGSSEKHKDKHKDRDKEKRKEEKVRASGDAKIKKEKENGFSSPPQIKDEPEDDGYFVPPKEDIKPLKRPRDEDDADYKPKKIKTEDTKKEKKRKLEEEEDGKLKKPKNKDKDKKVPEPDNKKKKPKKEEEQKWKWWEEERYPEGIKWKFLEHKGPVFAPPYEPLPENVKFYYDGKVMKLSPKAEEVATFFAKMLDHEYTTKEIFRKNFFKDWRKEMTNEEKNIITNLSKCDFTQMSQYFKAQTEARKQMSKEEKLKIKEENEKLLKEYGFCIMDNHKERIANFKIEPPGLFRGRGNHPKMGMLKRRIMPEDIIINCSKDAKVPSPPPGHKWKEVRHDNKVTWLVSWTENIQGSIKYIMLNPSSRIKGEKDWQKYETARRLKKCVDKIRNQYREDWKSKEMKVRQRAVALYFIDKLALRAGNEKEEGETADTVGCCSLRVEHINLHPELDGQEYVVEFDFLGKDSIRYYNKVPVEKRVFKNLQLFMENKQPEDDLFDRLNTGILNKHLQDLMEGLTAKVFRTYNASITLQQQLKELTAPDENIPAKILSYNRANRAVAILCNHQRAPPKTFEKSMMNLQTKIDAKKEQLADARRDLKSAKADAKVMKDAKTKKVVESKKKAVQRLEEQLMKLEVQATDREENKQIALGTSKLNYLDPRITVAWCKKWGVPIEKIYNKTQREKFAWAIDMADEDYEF

[2] = molecular target: T1, DNA topoisomerase 1 (Homo sapiens); assay: Effect on DNA breakge as nicked FormII at 1 uM with topoisomerase I; format: functional
[3] = molecular target: T1, DNA topoisomerase 1 (Homo sapiens); assay: Effect on DNA breakge as nicked FormII at 100 uM without topoisomerase I; format: functional
[4] = molecular target: T1, DNA topoisomerase 1 (Homo sapiens); conditions: 0.25 uM
Description: Effect on DNA breakge as nicked FormII at 0.25 uM with topoisomerase I

[5] = molecular target: T1, DNA topoisomerase 1 (Homo sapiens); conditions: 2 uM
Description: Effect on DNA breakge as nicked FormII at 2 uM without topoisomerase I

[6] = molecular target: T1, DNA topoisomerase 1 (Homo sapiens); conditions: 2 uM; remark: listed apart in the source
Description: Effect on stabilization of human topoisomerase I-DNA covalent complex at 2 uM

Row | Compound | Effect [1] [%] | Effect [2] [%] | Effect [3] [%] | Effect [4] [%] | Effect [5] [%] | Effect [6] [%]
1 | CC1O[C@@H](OC[C@H]2O[C@@H](Oc3c(-c4ccc(O)cc4)oc4cc(O)cc(O)c4c3=O)C(O[C@@H]3O[C@H](C)[C@H](O)C(O)C3O)C(O)[C@H]2O)C(O)[C@@H](O)[C@H]1O (some centres undefined) | 10 | 31 | 75 |  |  | 
2 | COc1cc([C@H]2OC[C@H]3[C@@H]2CO[C@@H]3c2cc(OC)c(O)c(OC)c2)cc(OC)c1O | 2 | 8 | 15 |  |  | 
3 | CC[C@@]1(O)C(=O)OCc2c1cc1n(c2=O)Cc2cc3ccccc3nc2-1 |  |  |  | 84 | 96 | 2
